# Data from US11091496B2, “Opioid ketal compounds and uses thereof” (priority 2013, dated 2021).
# Like-named read-outs stand apart in the source and are kept apart here. Marks after values point to notes of the source that are not given here.
# Key:
# [1] = format: physicochemical; conditions: for extent of hydrolysis to hydrocodone in about 4 hours: FIG. 5, FIG. 6; for % hydrocodone, % Ketal in hydrolysis mixture: hydrocodone 1,3-propanediol ketal; for % hydrocodone, % Ketal in hydrolysis mixture / Hydrocodone, 2S,5S ketal in hydrolysis mixture / Hydrocodone, 2R,5R ketal in hydrolysis mixture: 1 mg/ml; for % Oxycodone, % IVA-IVD in hydrolysis mixture: total 1 mg/ml; for relative rate of hydrolysis: comparison of stereoisomers; for Hydrocodone, 2S,5S ketal in hydrolysis mixture: hydrocodone 2S,5S-hexanediol ketal tested separately; for Hydrocodone, 2R,5R ketal in hydrolysis mixture: hydrocodone 2R,5R-hexanediol ketal tested separately
# [2] = 5% acetic acid 100° C.; for % Oxycodone, % IVA-IVD in hydrolysis mixture: unreacted oxycodone + four isomers of Formula IV, 1 mg/ml
# [3] = Ketal hydrolysis at varying pH, buffers at 37° C.; conditions: 1 mg/ml; for hydrolysis of the ketal: 37° C.
# [4] = mixture of isomers, 0.1 N HCl 37° C.
compound,measurement,setting,value
"COc1ccc2c3c1O[C@H]1C4(CCC5(O)[C@@H](C2)N(C)CC[C@]315)OCCC(C)O4 (stereo partly shown) [Formula V, oxycodone 1,3-butanediol ketal]",time at which about 50% of the oxycodone is released,[1]; [4],about 5 hours
same,time by which about (almost) 90% oxycodone release occurs,[1]; [4],≤ 25 h
same,time to almost completely hydrolyze to oxycodone,"[2]; FIG. 12, FIG. 13",at least 4 hours
same,time to about 60% hydrolysis,[2]; FIG. 13,about 1 hour
"COc1ccc2c3c1O[C@H]1C4(CCC5[C@@H](C2)N(C)CC[C@@]351)OCCCO4 (stereo partly shown) [Hydrocodone 1,3-propanediol ketal]",extent of hydrolysis to hydrocodone in about 4 hours,[1]; 0.1 N HCl 37° C.,nearly complete hydrolysis
same,"% hydrocodone, % Ketal in hydrolysis mixture","[1]; 0.1 N HCl 37° C., 0 h",93.1%
same,"% hydrocodone, % Ketal in hydrolysis mixture","[1]; 0.1 N HCl 37° C., 0.57 h",65.7%
same,"% hydrocodone, % Ketal in hydrolysis mixture","[1]; 0.1 N HCl 37° C., 1.25 h",52.3%
same,"% hydrocodone, % Ketal in hydrolysis mixture","[1]; 0.1 N HCl 37° C., 2 h",41.8%
same,"% hydrocodone, % Ketal in hydrolysis mixture","[1]; 0.1 N HCl 37° C., 3 h",32.8%
same,"% hydrocodone, % Ketal in hydrolysis mixture","[1]; 0.1 N HCl 37° C., 4 h",25.6%
"COc1ccc2c3c1O[C@H]1[C@]4(CCC5(O)[C@@H](C2)N(C)CC[C@]315)O[C@H](C)C[C@H](C)O4 (stereo partly drawn) [IVA, oxycodone 2R,4S-pentanediol ketal]","% Oxycodone, % IVA-IVD in hydrolysis mixture","[1]; 0.1 N HCl 37° C., 0 h",24.7%
same,"% Oxycodone, % IVA-IVD in hydrolysis mixture","[1]; 0.1 N HCl 37° C., 0.583 h",25.9%
same,"% Oxycodone, % IVA-IVD in hydrolysis mixture","[1]; 0.1 N HCl 37° C., 1.167 h",25.6%
same,"% Oxycodone, % IVA-IVD in hydrolysis mixture","[1]; 0.1 N HCl 37° C., 1.75 h",25%
same,"% Oxycodone, % IVA-IVD in hydrolysis mixture","[1]; 0.1 N HCl 37° C., 2.33 h",25.9%
same,"% Oxycodone, % IVA-IVD in hydrolysis mixture","[1]; 0.1 N HCl 37° C., 2.92 h",24.8%
same,"% Oxycodone, % IVA-IVD in hydrolysis mixture","[1]; 0.1 N HCl 37° C., 4 h",23.7%
same,"% Oxycodone, % IVA-IVD in hydrolysis mixture","[1]; 0.1 N HCl 37° C., 6.5 h",19.8%
same,"% Oxycodone, % IVA-IVD in hydrolysis mixture","[1]; 0.1 N HCl 37° C., 9.75 h",15.6%
same,"% Oxycodone, % IVA-IVD in hydrolysis mixture","[1]; 0.1 N HCl 37° C., 13.75 h",9.9%
same,"% Oxycodone, % IVA-IVD in hydrolysis mixture","[1]; 0.1 N HCl 37° C., 25 h",4.3%
same,"% Oxycodone, % IVA-IVD in hydrolysis mixture",[2]; 0 h,24%
same,"% Oxycodone, % IVA-IVD in hydrolysis mixture",[2]; 0.5 h,21.1%
same,"% Oxycodone, % IVA-IVD in hydrolysis mixture",[2]; 1 h,15.8%
same,"% Oxycodone, % IVA-IVD in hydrolysis mixture",[2]; 2 h,6%
same,"% Oxycodone, % IVA-IVD in hydrolysis mixture",[2]; 4.35 h,3.1%
same,"% Oxycodone, % IVA-IVD in hydrolysis mixture",[2]; 10 h,0%
"COc1ccc2c3c1O[C@H]1[C@@]4(CCC5(O)[C@@H](C2)N(C)CC[C@]315)O[C@H](C)C[C@H](C)O4 (stereo partly drawn) [IVB, oxycodone 2S,4R-pentanediol ketal]","% Oxycodone, % IVA-IVD in hydrolysis mixture","[1]; 0.1 N HCl 37° C., 0 h",10.7%
same,"% Oxycodone, % IVA-IVD in hydrolysis mixture","[1]; 0.1 N HCl 37° C., 0.583 h",10.6%
same,"% Oxycodone, % IVA-IVD in hydrolysis mixture","[1]; 0.1 N HCl 37° C., 1.167 h",10.7%
same,"% Oxycodone, % IVA-IVD in hydrolysis mixture","[1]; 0.1 N HCl 37° C., 1.75 h",7.8%
same,"% Oxycodone, % IVA-IVD in hydrolysis mixture","[1]; 0.1 N HCl 37° C., 2.33 h",8.3%
same,"% Oxycodone, % IVA-IVD in hydrolysis mixture","[1]; 0.1 N HCl 37° C., 2.92 h",8.7%
same,"% Oxycodone, % IVA-IVD in hydrolysis mixture","[1]; 0.1 N HCl 37° C., 4 h",9.2%
same,"% Oxycodone, % IVA-IVD in hydrolysis mixture","[1]; 0.1 N HCl 37° C., 6.5 h",10%
same,"% Oxycodone, % IVA-IVD in hydrolysis mixture","[1]; 0.1 N HCl 37° C., 9.75 h",10.2%
same,"% Oxycodone, % IVA-IVD in hydrolysis mixture","[1]; 0.1 N HCl 37° C., 13.75 h",10.4%
same,"% Oxycodone, % IVA-IVD in hydrolysis mixture","[1]; 0.1 N HCl 37° C., 25 h",9.3%
same,"% Oxycodone, % IVA-IVD in hydrolysis mixture",[2]; 0 h,10.9%
same,"% Oxycodone, % IVA-IVD in hydrolysis mixture",[2]; 0.5 h,8.7%
same,"% Oxycodone, % IVA-IVD in hydrolysis mixture",[2]; 1 h,9.7%
same,"% Oxycodone, % IVA-IVD in hydrolysis mixture",[2]; 2 h,9.2%
same,"% Oxycodone, % IVA-IVD in hydrolysis mixture",[2]; 4.35 h,9%
same,"% Oxycodone, % IVA-IVD in hydrolysis mixture",[2]; 10 h,4.8%
"Hydrocodone 2R,4R-pentanediol ketal",hydrolysis of the ketal,"[3]; pH 1, 0 h",0
same,hydrolysis of the ketal,"[3]; pH 1, 0.33 h",50
same,hydrolysis of the ketal,"[3]; pH 1, 1 h",90
same,hydrolysis of the ketal,"[3]; pH 1, 2 h",99.8
same,hydrolysis of the ketal,"[3]; pH 1, 4 h",100
same,hydrolysis of the ketal,"[3]; pH 1.5, 0 h",0
same,hydrolysis of the ketal,"[3]; pH 1.5, 0.33 h",30.6
same,hydrolysis of the ketal,"[3]; pH 1.5, 1 h",59.4
same,hydrolysis of the ketal,"[3]; pH 1.5, 2 h",85.1
same,hydrolysis of the ketal,"[3]; pH 1.5, 4 h",98.2
same,hydrolysis of the ketal,"[3]; pH 2, 0 h",0
same,hydrolysis of the ketal,"[3]; pH 2, 0.33 h",8.3
same,hydrolysis of the ketal,"[3]; pH 2, 1 h",21.9
same,hydrolysis of the ketal,"[3]; pH 2, 2 h",37.7
same,hydrolysis of the ketal,"[3]; pH 2, 4 h",58.2
same,hydrolysis of the ketal,"[3]; pH 2.5, 0 h",0
same,hydrolysis of the ketal,"[3]; pH 2.5, 0.33 h",0
same,hydrolysis of the ketal,"[3]; pH 2.5, 1 h",0
same,hydrolysis of the ketal,"[3]; pH 2.5, 2 h",15.9
same,hydrolysis of the ketal,"[3]; pH 2.5, 4 h",26.4
same,hydrolysis of the ketal,"[3]; pH 3, 0 h",0
same,hydrolysis of the ketal,"[3]; pH 3, 0.33 h",0
same,hydrolysis of the ketal,"[3]; pH 3, 1 h",0
same,hydrolysis of the ketal,"[3]; pH 3, 2 h",5.9
same,hydrolysis of the ketal,"[3]; pH 3, 4 h",12.7
same,hydrolysis of the ketal,"[3]; pH 4, 4 h, estimated from longer hydrolysis times",1.3*
same,hydrolysis of the ketal,"[3]; pH 5, 4 h, estimated from longer hydrolysis times",0.15*
same,hydrolysis of the ketal,"[3]; pH 7, 4 h, estimated from longer hydrolysis times",0.01*
same,hydrolysis of the ketal,"[3]; pH 12, 4 h, estimated from longer hydrolysis times",0.01*
same,pH at which hydrolysis of the ketal is fastest,[3]; pH buffers 37° C.,fastest at pH 1
"Hydrocodone 2S,5S-hexanediol ketal [2S,5S ketal]",relative rate of hydrolysis,[1],hydrolyzes relatively slowly
same,"Hydrocodone, 2S,5S ketal in hydrolysis mixture","[1]; 0.1 N HCl 37° C., 0 h",81.98
same,"Hydrocodone, 2S,5S ketal in hydrolysis mixture","[1]; 0.1 N HCl 37° C., 0.5 h",52.18
same,"Hydrocodone, 2S,5S ketal in hydrolysis mixture","[1]; 0.1 N HCl 37° C., 1.25 h",35.11
same,"Hydrocodone, 2S,5S ketal in hydrolysis mixture","[1]; 0.1 N HCl 37° C., 2 h",10.19
same,"Hydrocodone, 2S,5S ketal in hydrolysis mixture","[1]; 0.1 N HCl 37° C., 3 h",4.29
same,"Hydrocodone, 2S,5S ketal in hydrolysis mixture","[1]; 0.1 N HCl 37° C., 4 h",2
"hydrocodone 2,5-hexanediol ketal",extent of hydrolysis to hydrocodone in about 4 hours,[1]; 0.1 N HCl 37° C.,nearly complete hydrolysis
"hydrocodone 2R,5R-hexanediol ketal [2R,5R ketal]",relative rate of hydrolysis,[1],hydrolyzes relatively quickly
same,"Hydrocodone, 2R,5R ketal in hydrolysis mixture","[1]; 0.1 N HCl 37° C., 0 h",73.88
same,"Hydrocodone, 2R,5R ketal in hydrolysis mixture","[1]; 0.1 N HCl 37° C., 0.5 h",34.6
same,"Hydrocodone, 2R,5R ketal in hydrolysis mixture","[1]; 0.1 N HCl 37° C., 1.25 h",11.37
same,"Hydrocodone, 2R,5R ketal in hydrolysis mixture","[1]; 0.1 N HCl 37° C., 2 h",2.67
same,"Hydrocodone, 2R,5R ketal in hydrolysis mixture","[1]; 0.1 N HCl 37° C., 3 h",0
same,"Hydrocodone, 2R,5R ketal in hydrolysis mixture","[1]; 0.1 N HCl 37° C., 4 h",0
"oxycodone cis 1,2-cyclohexanedimethanol ketals",proportion of oxycodone in the mixture,"[1]; 0.1 N HCl 37° C., within five hours, FIG. 4",increased from about 30% to about 55%
